# Tested on: normal rat
# Assay: Maltose load in normal rat, single administration, blood glucose levels
# Assay type: in vivo
# Settings: maltose 2 g/kg load
# Protocol: Maltose was administered to a normal rat at a dosage of 2 g per kg of the body weight. Subsequently, an extract obtained by extracting the fermented tea obtained by means of tea-rolling processing with hot water was administered to the rat at a dosage of 20 mg per kg of the body weight, or a product was administered to the rat at a dosage of 20 mg per kg of the body weight, in which a plant in Sri Lanka, one of the materials having high activities with the highest level among the materials reported heretofore (J. Agri. Food. Chem. 2004) was extracted with methanol, then concentrated, and then freeze-dried, followed by dissolving the freeze-dried product in water. 30 minutes, 60 minutes, and 120 minutes after the administration, the blood glucose levels were measured.
# As an indication of 50% reduction of the elevation of blood glucose levels, EC50 is employed.
# Maltose was administrated to a normal rat at a dosage of 2 g per kg of the body weight. Subsequently, an extract obtained by extracting the fermented tea obtained by means of tea-rolling processing with hot water was administered at a dosage of 10 mg per kg of the body weight or 20 mg per kg of the body weight. A decreasing rate of the total blood glucose level area up to 120 minutes after carrying out carbohydrate load (AUCO-120) is shown in Table 6.
structure (smiles),measurement,value
"C[C@H]1O[C@H](O[C@H]2[C@H](O)[C@@H](O)[C@@H](O[C@H]3[C@H](O)[C@@H](O)C(O)O[C@@H]3CO)O[C@@H]2CO)[C@H](O)[C@@H](O)[C@@H]1N[C@H]1C=C(CO)[C@@H](O)[C@H](O)[C@H]1O (stereo partly shown) [Acarbose, acarbose]",EC50 (50% reduction of the elevation of blood glucose levels),3.1 mg/kg

# From patent publication US7901724B2, “Fermented tea obtained by tea-rolling processing of tea material leaves and loquat leaves, and composition having extract contained in fermented tea as active component” (Nagasaki Prefectural Government, priority 2004, dated 2011)
